This note sets out measurements from US8580794B2 (AbbVie Inc., priority 2009, dated 2013).

As a reminder, the Ki is a measure of affinity in units of concentration, obtained from inhibition or displacement.

This assay addresses GST-Bc1-2 (Homo sapiens, UniProt P10415). Kind of assay: Time Resolved-Fluorescence Resonance Energy Transfer (TR-FRET) Bcl-2 binding assay with F-Bak peptide probe. The note with it: GST-Bcl-2 1 nM, F-Bak probe 100 nM, Tb-anti-GST 1 nM; '<' = below limit of detection; read-out: TR-FRET Bcl-2 Binding Ki.

SMILES strings stand for the structures. Bounds are passed on as bounds.

Chain of GST-Bc1-2 (P10415 whole entry): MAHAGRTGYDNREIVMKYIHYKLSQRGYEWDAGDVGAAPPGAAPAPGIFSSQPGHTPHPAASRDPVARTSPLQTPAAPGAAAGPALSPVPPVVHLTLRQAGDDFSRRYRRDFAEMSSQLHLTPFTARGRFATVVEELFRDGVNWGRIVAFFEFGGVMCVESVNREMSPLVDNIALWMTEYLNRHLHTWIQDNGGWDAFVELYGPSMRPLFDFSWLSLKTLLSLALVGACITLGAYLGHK

Consider `CC1(C)CCC(CN2CCN(c3ccc(C(=O)NS(=O)(=O)c4cnc(OCCC5CCOCC5)c(C#N)c4)c(Oc4cnc5[nH]ccc5c4)c3)CC2)=C(c2ccc(Cl)cc2)C1` [Example 278, 4-(4-{[2-(4-chlorophenyl)-4,4-dimethylcyclohex-1-en-1-yl]methyl}piperazin-1-yl)-N-({5-cyano-6-[2-(tetrahydro-2H-pyran-4-yl)ethoxy]pyridin-3-yl}sulfonyl)-2-(1H-pyrrolo[2,3-b]pyridin-5-yloxy)benzamide], for which the inhibitory constant (Ki) turned out to be 0.252 nM. With `CC1(C)CCC(CN2CCN(c3ccc(C(=O)NS(=O)(=O)c4ccc(OCc5ccoc5)c([N+](=O)[O-])c4)c(Oc4cnc5[nH]ccc5c4)c3)CC2)=C(c2ccc(Cl)cc2)C1` [Example 279, 4-(4-{[2-(4-chlorophenyl)-4,4-dimethylcyclohex-1-en-1-yl]methyl}piperazin-1-yl)-N-{[4-(3-furylmethoxy)-3-nitrophenyl]sulfonyl}-2-(1H-pyrrolo[2,3-b]pyridin-5-yloxy)benzamide] the figure was 0.035 nM. For the compound `CC1(C)CCC(CN2CCN(c3ccc(C(=O)NS(=O)(=O)c4cnc(OC[C@@H]5CCN(C(CF)CF)C5)c(Cl)c4)c(Oc4cnc5[nH]ccc5c4)c3)CC2)=C(c2ccc(Cl)cc2)C1` [Example 280, N-[(5-chloro-6-{[(3R)-1-(1,3-difluoropropan-2-yl)pyrrolidin-3-yl]methoxy}pyridin-3-yl)sulfonyl]-4-(4-{[2-(4-chlorophenyl)-4,4-dimethylcyclohex-1-en-1-yl]methyl}piperazin-1-yl)-2-(1H-pyrrolo[2,3-b]pyridin-5-yloxy)benzamide], the inhibitory constant (Ki) turned out to be 0.071 nM. Turning to `CC1(C)CCC(CN2CCN(c3ccc(C(=O)NS(=O)(=O)c4cnc(OC[C@@H]5CCN(CC(F)F)C5)c(Cl)c4)c(Oc4cnc5[nH]ccc5c4)c3)CC2)=C(c2ccc(Cl)cc2)C1` [Example 281, N-[(5-chloro-6-{[(3R)-1-(2,2-difluoroethyl)pyrrolidin-3-yl]methoxy}pyridin-3-yl)sulfonyl]-4-(4-{[2-(4-chlorophenyl)-4,4-dimethylcyclohex-1-en-1-yl]methyl}piperazin-1-yl)-2-(1H-pyrrolo[2,3-b]pyridin-5-yloxy)benzamide], the Ki was found to be 0.145 nM. For the compound `CC1(C)CCC(CN2CCN(c3ccc(C(=O)NS(=O)(=O)c4cnc(OCC5(F)CCN(C(CF)CF)CC5)c(Cl)c4)c(Oc4cnc5[nH]ccc5c4)c3)CC2)=C(c2ccc(Cl)cc2)C1` [Example 282, N-[(5-chloro-6-{[1-(1,3-difluoropropan-2-yl)-4-fluoropiperidin-4-yl]methoxy}pyridin-3-yl)sulfonyl]-4-(4-{[2-(4-chlorophenyl)-4,4-dimethylcyclohex-1-en-1-yl]methyl}piperazin-1-yl)-2-(1H-pyrrolo[2,3-b]pyridin-5-yloxy)benzamide], the Ki is less than 0.01 nM. As for `CN1CCC(F)(COc2ccc(S(=O)(=O)NC(=O)c3ccc(N4CCN(CC5=C(c6ccc(Cl)cc6)CC(C)(C)CC5)CC4)cc3Oc3cnc4[nH]ccc4c3)cc2Cl)CC1` [Example 283, N-({3-chloro-4-[(4-fluoro-1-methylpiperidin-4-yl)methoxy]phenyl}sulfonyl)-4-(4-{[2-(4-chlorophenyl)-4,4-dimethylcyclohex-1-en-1-yl]methyl}piperazin-1-yl)-2-(1H-pyrrolo[2,3-b]pyridin-5-yloxy)benzamide], the Ki is less than 0.01 nM. Consider `CC1(C)CCC(CN2CCN(c3ccc(C(=O)NS(=O)(=O)c4ccc(OCC5CCOCC5)c(C#N)c4)c(Oc4cnc5[nH]ccc5c4)c3)CC2)=C(c2ccc(Cl)cc2)C1` [Example 284, 4-(4-{[2-(4-chlorophenyl)-4,4-dimethylcyclohex-1-en-1-yl]methyl}piperazin-1-yl)-N-{[3-cyano-4-(tetrahydro-2H-pyran-4-ylmethoxy)phenyl]sulfonyl}-2-(1H-pyrrolo[2,3-b]pyridin-5-yloxy)benzamide], for which the inhibitory constant (Ki) came to 0.024 nM. With `CC1(C)CCC(CN2CCN(c3ccc(C(=O)NS(=O)(=O)c4cnc(OCC5(F)CCN(CC(F)F)CC5)c(Cl)c4)c(Oc4cnc5[nH]ccc5c4)c3)CC2)=C(c2ccc(Cl)cc2)C1` [Example 285, N-[(5-chloro-6-{[1-(2,2-difluoroethyl)-4-fluoropiperidin-4-yl]methoxy}pyridin-3-yl)sulfonyl]-4-(4-{[2-(4-chlorophenyl)-4,4-dimethylcyclohex-1-en-1-yl]methyl}piperazin-1-yl)-2-(1H-pyrrolo[2,3-b]pyridin-5-yloxy)benzamide] the figure was less than 0.01 nM; with `CC1(C)CCC(CN2CCN(c3ccc(C(=O)NS(=O)(=O)c4ccc(OCC5(F)CCOCC5)c(Cl)c4)c(Oc4cnc5[nH]ccc5c4)c3)CC2)=C(c2ccc(Cl)cc2)C1` [Example 286, N-({3-chloro-4-[(4-fluorotetrahydro-2H-pyran-4-yl)methoxy]phenyl}sulfonyl)-4-(4-{[2-(4-chlorophenyl)-4,4-dimethylcyclohex-1-en-1-yl]methyl}piperazin-1-yl)-2-(1H-pyrrolo[2,3-b]pyridin-5-yloxy)benzamide], less than 0.01 nM; with `CC1(C)CCC(CN2CCN(c3ccc(C(=O)NS(=O)(=O)c4cnc(OCC5CCC(F)(F)CC5)c(Cl)c4)c(Oc4cnc5[nH]ccc5c4)c3)CC2)=C(c2ccc(Cl)cc2)C1` [Example 287, N-({5-chloro-6-[(4,4-difluorocyclohexyl)methoxy]pyridin-3-yl}sulfonyl)-4-(4-{[2-(4-chlorophenyl)-4,4-dimethylcyclohex-1-en-1-yl]methyl}piperazin-1-yl)-2-(1H-pyrrolo[2,3-b]pyridin-5-yloxy)benzamide], 0.081 nM. As for `CC1(C)CCC(CN2CCN(c3ccc(C(=O)NS(=O)(=O)c4cnc(OCC5(F)CCN(C(CF)CF)CC5)c(C(F)(F)F)c4)c(Oc4cnc5[nH]ccc5c4)c3)CC2)=C(c2ccc(Cl)cc2)C1` [Example 288, 4-(4-{[2-(4-chlorophenyl)-4,4-dimethylcyclohex-1-en-1-yl]methyl}piperazin-1-yl)-N-{[6-{[1-(1,3-difluoropropan-2-yl)-4-fluoropiperidin-4-yl]methoxy}-5-(trifluoromethyl)pyridin-3-yl]sulfonyl}-2-(1H-pyrrolo[2,3-b]pyridin-5-yloxy)benzamide], the inhibition constant Ki turned out to be 0.251 nM. With `CC1(C)CCC(CN2CCN(c3ccc(C(=O)NS(=O)(=O)c4cnc(OCCC5CCCO5)c(Cl)c4)c(Oc4cnc5[nH]ccc5c4)c3)CC2)=C(c2ccc(Cl)cc2)C1` (stereo not shown) [Example 289, 4-(4-{[2-(4-chlorophenyl)-4,4-dimethylcyclohex-1-en-1-yl]methyl}piperazin-1-yl)-N-({5-chloro-6-[2-(tetrahydrofuran-2-yl)ethoxy]pyridin-3-yl}sulfonyl)-2-(1H-pyrrolo[2,3-b]pyridin-5-yloxy)benzamide] the figure was 0.09 nM; with `CC1CN(c2ccc(C(=O)NS(=O)(=O)c3ccc(NCC4CCOCC4)c([N+](=O)[O-])c3)c(Oc3cnc4[nH]ccc4c3)c2)CCN1CC1=C(c2ccc(Cl)cc2)CC(C)(C)CC1` (stereo not shown) [Example 290, 4-(4-{[2-(4-chlorophenyl)-4,4-dimethylcyclohex-1-en-1-yl]methyl}-3-methylpiperazin-1-yl)-N-({3-nitro-4-[(tetrahydro-2H-pyran-4-ylmethyl)amino]phenyl}sulfonyl)-2-(1H-pyrrolo[2,3-b]pyridin-5-yloxy)benzamide], less than 0.01 nM.
